#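 Following 48 hours of exposure in 96-well plates, responses at five concentrations were used to interpolate endpoints linearly. Here, GI50 denotes the concentration required for 50% inhibition of growth. TGI is the concentration that stops growth completely.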
# Experiments:
# Experiment in all cases: DTP human tumour cell line panel, 48 h
# OVCAR-5 ovarian = test system: OVCAR-5 ovarian
# MCF7 breast = test system: MCF7 breast
# A549 NSCLC = test system: A549 NSCLC
# TK-10 renal = test system: TK-10 renal
# COLO 205 colon = test system: COLO 205 colon
# NCI-H460 lung = test system: NCI-H460 lung
# MDA-MB-231 breast = test system: MDA-MB-231 breast
# 786-0 renal = test system: 786-0 renal
Structure (SMILES),TGI (OVCAR-5 ovarian) [µM],TGI (MCF7 breast) [µM],TGI (A549 NSCLC) [µM],TGI (TK-10 renal) [µM],TGI (COLO 205 colon) [µM],TGI (NCI-H460 lung) [µM],TGI (MDA-MB-231 breast) [µM],TGI (786-0 renal) [µM],GI50 (OVCAR-5 ovarian) [µM],GI50 (NCI-H460 lung) [µM],GI50 (MDA-MB-231 breast) [µM],GI50 (MCF7 breast) [µM],GI50 (A549 NSCLC) [µM],GI50 (TK-10 renal) [µM],GI50 (COLO 205 colon) [µM]
CC1CC[C@@]2(OC1)OC1C[C@H]3[C@@H]4C/C(=N\N(C)C)[C@@]5(O)CC(O)CC[C@]5(C)[C@H]4CC[C@]3(C)C1[C@@H]2C (some centres not stated),> 100,> 100,> 100,> 100,> 100,> 100,> 100,> 100,,,,,,,
O=c1[nH]c(=O)n(C2CC(O)C(CO)O2)cc1OCCCc1ccccc1 (configuration not stated),> 100,> 100,> 100,> 100,> 100,> 100,> 100,> 100,,,,,,,
Cc1cccc2c1Oc1ccccc1C2NC(=O)c1ccc([N+](=O)[O-])cc1 (configuration not stated),> 100,,> 100,> 100,,> 100,> 100,> 100,,,,,,,
Cn1c(=O)cc(NCc2ccc(Cl)cc2)[nH]c1=O,> 100,> 100,> 100,> 100,> 100,> 100,> 100,> 100,,,,,,,
CC1=C2c3c(C)ccc4ccc(C)c(c34)C2(O)C(C)C1=O (configuration not stated),> 100,> 100,> 100,> 100,72.2,> 100,> 100,> 100,,,,,,,
COc1cc(-c2oc3c(OC)c(O)c(OC)c(O)c3c(=O)c2OC)cc(O)c1OC,> 100,> 100,> 100,> 100,> 100,,> 100,> 100,,,,,,,
O=C/C(=C(/Br)I)c1ccccc1,23.6,2.57,56.2,20.2,14.3,26.4,7.44,5.38,,,,,,,
COc1ccc(/C=C2\C[C@H]3[C@@H]4CCC5=C[C@@H](N6CCCC6)CC[C@]5(C)[C@H]4CC[C@]3(C)[C@H]2O)cc1,20.9,5.84,7.59,7.44,3.54,8.04,4.6,2.94,,,,,,,
CC(C)(C)N(Cc1ccc2c(c1)OCO2)C(=O)/C=C\S(=O)c1ccccc1 (configuration not stated),25.1,14.2,18.4,17,8.75,16.9,9.75,6.07,,,,,,,
CCCc1cc(=O)oc2c3c(c4c(c12)OC(C)(C)C=C4)O[C@@H](C)[C@H](C)C3=O,33.2,46.3,24.5,44.3,49.5,44.4,33.2,38.8,,,,,,,
CC1(c2nc3cc(Cl)c(Cl)cc3[nH]2)CCC(CO)C(C)(C)O1 (configuration not stated),> 100,> 100,> 100,> 100,73.8,,77.6,> 100,,,,,,,
N#CCCN(CCC#N)c1ccc(C(N=Nc2ccccc2)=Nc2ccccc2)cc1,> 100,> 100,> 100,> 100,> 100,> 100,> 100,> 100,,,,,,,
O=C1CN2Cc3cc(N4CCOCC4)ccc3N=C2N1,> 100,> 100,,> 100,> 100,> 100,> 100,,,,,,,,
Cc1ccc(-c2c(C#N)c(S)n(NS(=O)(=O)c3ccc(C)cc3)c(=O)c2C#N)cc1,67,> 100,> 100,50.5,> 100,,> 100,> 100,,,,,,,
Cc1cn(C2CCC(/C=N\O)O2)c(=O)[nH]c1=O (configuration not stated),> 100,> 100,> 100,,> 100,> 100,> 100,> 100,,,,,,,
COc1ccc(N=C(C)c2ccncc2)cc1,> 100,> 100,> 100,> 100,> 100,> 100,> 100,> 100,,,,,,,
COc1ccc2nc3cccc([N+](=O)[O-])c3c(NCCO)c2c1,0.0698,0.296,0.0909,0.142,0.0146,0.0233,0.041,0.0649,,,,,,,
CCCCCCOc1ccc(C(=O)NOCc2ccccc2)cc1,> 100,> 100,> 100,> 100,> 100,> 100,> 100,> 100,,,,,,,
O=[N+]([O-])c1ccc(C2=NOC(c3ccccc3F)N2C23CC4CC(CC(C4)C2)C3)cc1 (configuration not stated),> 100,> 100,> 100,> 100,> 100,> 100,> 100,> 100,,,,,,,
O=[N+]([O-])c1cccc2nc3ccccc3c(NCCc3cccc[n+]3[O-])c12,0.145,0.276,< 0.0476,0.225,< 0.0168,0.174,0.0538,0.249,,,,,,,
CC1(C)C(=O)C(C)(C)C12SSC1(S2)C(C)(C)C(=O)C1(C)C,> 100,> 100,> 100,> 100,> 100,> 100,> 100,> 100,,,,,,,
CCOc1ccc(/C(O)=C/c2nc3ccccc3nc2/C=C(\O)c2ccc(OCC)cc2)cc1,> 100,> 100,> 100,> 100,> 100,> 100,> 100,> 100,,,,,,,
CC(C)NC(=O)CN1CCN(C2=CC(=O)c3c(O)ccc(O)c3C2=O)CC1,33.5,9.35,35.2,31.5,9.64,29.1,> 63.5,42.4,,,,,,,
O=C(CC(=O)N1N=C(N2CCCCC2)CC1c1ccccc1)Nc1ccc(Cl)cc1 (configuration not stated),> 100,> 100,> 100,> 100,> 100,> 100,> 100,> 100,,,,,,,
CC1(C)CC(=O)C2=C(C1)c1c(ccc3ccccc13)NC2c1cn(Cc2ccc(Cl)cc2)c2ccccc12 (configuration not stated),> 100,> 100,> 100,> 100,> 100,> 100,> 100,> 100,,,,,,,

Structure (SMILES),TGI (OVCAR-5 ovarian) [µM],TGI (MCF7 breast) [µM],TGI (A549 NSCLC) [µM],TGI (TK-10 renal) [µM],TGI (COLO 205 colon) [µM],TGI (NCI-H460 lung) [µM],TGI (MDA-MB-231 breast) [µM],TGI (786-0 renal) [µM],GI50 (OVCAR-5 ovarian) [µM],GI50 (NCI-H460 lung) [µM],GI50 (MDA-MB-231 breast) [µM],GI50 (MCF7 breast) [µM],GI50 (A549 NSCLC) [µM],GI50 (TK-10 renal) [µM],GI50 (COLO 205 colon) [µM]
CCNC1(c2cccc(C)c2)OC(C)(C)c2cccc3cccc1c23 (configuration not stated),38.1,34.9,30.9,38.3,34,30,,37.6,,,,,,,
OC12COc3ccccc3C1Oc1ccccc1C2 (configuration not stated),> 100,> 100,> 100,> 100,> 100,,> 100,> 100,,,,,,,
O=c1cc(N2CCOCC2)[nH]c(=O)n1-c1cccc(C(F)(F)F)c1,> 100,> 100,> 100,> 100,> 100,> 100,57,> 100,,,,,,,
COc1ccc(-c2csc(=Nc3ccccc3)n2CC(O)c2ccc([N+](=O)[O-])cc2)cc1 (configuration not stated),> 100,> 100,> 100,> 100,> 100,> 100,> 100,> 100,,,,,,,
O=C(O)C1CCCN1Cc1cc2ccccc2c2ccccc12 (configuration not stated),> 100,> 100,> 100,> 100,> 100,> 100,> 100,> 100,,,,,,,
CC1(C23CC4CC(CC(C4)C2)C3)n2c(=O)n(-c3ccccc3)c(=O)n2C1(C)C12CC3CC(CC(C3)C1)C2 (configuration not stated),> 100,> 100,> 100,> 100,> 100,> 100,> 100,,,,,,,,
CN(C)CCNc1ccc2c(=O)n(CCN(C)C)c(=O)n3c4ccc([N+](=O)[O-])cc4c(=O)c1c23,4.54,1.04,2.26,7.1,2.12,1.53,2.21,2.74,,,,,,,
COc1ccc(N2C(=O)C3ON(C(C(N)=O)c4ccccc4)C(c4ccc(-c5ccccc5)cc4)C3C2=O)cc1 (configuration not stated),> 50,> 50,> 50,> 50,> 50,> 50,> 50,> 50,,,,,,,
Cc1cc(C)nc(NS(=O)(=O)c2ccc(Nc3c4ccccc4nc4c(C(=O)NCCCN(CCO)CCO)cccc34)cc2)n1,> 100,> 100,> 100,> 100,34.3,44,88.6,,,,,,,,
Cc1[nH]c(=O)nc(N/N=C/c2ccc(Cl)cc2)c1C(=O)NC(C)(CO)CO,> 100,> 100,,> 100,> 100,> 100,,,,,,,,,
COc1ccc2nc3ccc(OC)cc3c(S(=O)(=O)Cc3ccc([N+](=O)[O-])cc3)c2c1,> 100,> 100,> 100,> 100,> 100,> 100,> 100,> 100,,,,,,,
CC(=O)C(=[N+]=[N-])C(=O)OC(C)(C)C#N,> 10,> 10,> 10,> 10,> 10,> 10,> 10,> 10,,,,,,,
CN(NC(=O)CCCl)C1=NCCN1,> 100,> 100,> 100,> 100,> 100,> 100,> 100,> 100,,,,,,,
C[C@H](Nc1c(O)c2c(c(O)c1Cl)C(=O)C=CC2=O)C(=O)Nc1ccc([N+](=O)[O-])cc1,3.51,3.42,3.64,3.39,2.97,6.29,4.22,3.23,,,,,,,
CN1C2CC(=O)CC1[C@H](O)[C@@H]2O,,> 100,,> 100,> 100,> 100,> 100,,,,,,,,
Cc1cccc2c1Oc1cc(Cl)ccc1C2NC(=O)CCN1CCN(CCO)CC1 (configuration not stated),40.9,30.3,23.7,,36.6,34.2,14.6,26.5,,,,,,,
CCCCC(=O)Nc1ccc2cc(C(=O)OC)c(ON3C(=O)c4ccccc4C3=O)nc2n1,98.3,> 100,> 100,46.2,> 100,51.4,> 100,36.1,,,,,,,
NCCCNc1nc2ccccc2c2c(=O)c3cc(C(F)(F)F)ccc3sc12,3.15,,,,,3.17,2.75,,1.73,1.66,1.4,,,,
CCOC(=O)c1csc(NC(=O)CCN2CCCCC2)n1,> 100,> 100,> 100,> 100,> 100,> 100,> 100,,,,,,,,
CC1(C)CC[C@]2(C)CC=C3[C@]4(C)CC[C@H]5C(C)(C)C(=O)CC[C@]5(C)[C@H]4CC[C@@]3(C)[C@H]2C1,> 100,> 100,> 100,> 100,> 100,,> 100,> 100,,,,,,,
CC1(C2(C)OC(=O)c3ccccc32)OC(=O)c2ccccc21 (configuration not stated),,> 100,> 100,> 100,> 100,> 100,> 100,> 100,,,,,,,
COCC1CCCN1c1ccc(/C=C(/C#N)C(N)=S)cc1 (configuration not stated),> 100,> 100,> 100,> 100,> 100,> 100,55.8,,> 100,> 100,9.89,69.4,> 100,> 100,> 100
CSc1nc(-c2cc3c(c(SC)n2)CCCCC3)cc2c1CCCCC2,> 100,,> 100,> 100,> 100,> 100,> 100,> 100,,,,,,,
CC1OC(OC2C(O[C@H]3CC[C@@]4(C)[C@@H](CC[C@@H]5[C@@H]4CC[C@]4(C)[C@@H]6[C@H](C[C@@H]54)O[C@]4(CC[C@@H](C)CO4)[C@H]6C)C3)OC(CO)C(OC3OC(CO)C(O)C(OC4OCC(O)C(O)C4O)C3OC3OCC(O)C(O)C3O)C2O)C(O)C(O)C1O (some centres not stated),2.42,0.914,1.05,,1.35,2.23,9.57,3.02,,,,,,,

# Reference: PubChem BioAssay (NCI)
